The text below walks through data of paper PMC3621862, “Re-Directing an Alkylating Agent to Mitochondria Alters Drug Target and Cell Death Mechanism” (PLoS ONE, 2013).

Data set [1] concerns caspase-3 and PARP-1 cleavage in HeLa cells. The data set is classed as cell-based.
For data set [2], the system named is mouse livers. In words: Liver toxicity: H&E histology and plasma liver enzymes. The data set is classed as in vivo. The conditions noted are these: mt-Cbl 15 mg/kg, Cbl 3.7 mg/kg every other day for 21 days. The procedure:
Mice were treated every other day with equimolar doses of either mt-Cbl (15 mg/kg), Cbl (3.7 mg/kg) or vehicle control for 21 days by Kard Scientific (Beverly, MA). Following sacrifice, mouse livers and K562 xenograft tumors were fixed in 10% formalin overnight and then transferred to 70% ethanol. Samples were then paraffin-embedded, sectioned and stained in a standard manner by the Pathology Research Program Laboratory at Toronto General Hospital. Biotin-conjugated secondary antibodies, avidin horseradish peroxidase and the chromogenic diaminobenzidine tetrahydrochloride (DAB) were used for detection. Slides were imaged at 20× and then analyzed using Aperio ImageScope Software (Aperio Technologies, Vista, California). Positive pixels were identified and counted using the Positive Pixel Count V9 algorithm in this software. Quantification was performed on ten representative squares of 2500×2500 μm each and an average was calculated. % Positive Pixels was determined by dividing the positive pixel count by the total number of pixels analyzed. A standard hematoxylin and eosin (H&E) staining was performed on liver sections and these were reviewed for hepatotoxicity and injury by a pathologist with liver expertise. In addition, liver toxicity was evaluated though determination of levels of specific liver enzymes. Mice were treated every other day with equimolar doses of either mt-Cbl (15 mg/kg), Cbl (3.7 mg/kg) or vehicle control for 21 days. Three days after the final dose, mouse plasma samples were tested for levels of bilirubin, alkaline phosphatase and aspartate transaminase in a standard manner.

Data set [3] is described as follows: Biodistribution in K562 xenograft mice. The data set is classed as in vivo, mouse. The conditions noted are these: K562 xenograft NOD/SCID mice; mt-Cbl 15 mg/kg, Cbl 100 mg/kg i.p. daily for 10 days. The procedure:
K562 cells (3×10^6) were injected subcutaneously into the flanks of ten NOD/SCID mice (Ontario Cancer Institute, Toronto, ON). Palpable tumours were formed 7 days after injection and mice were then treated daily for 10 days with Cbl (100 mg/kg) or mt-Cbl (15 mg/kg) by intraperitoneal injection. Mice were sacrificed 17 days after injection of cells and organs were excised for analysis of Cbl and mt-Cbl biodistribution profiles. The liver, kidneys, spleen, heart, lungs and brain were removed from mice following sacrifice and immediately frozen in dry ice until analysis. Tissues were homogenized in four volumes of ice-cold acetonitrile and centrifuged at 10,000×g for 10 min, 4°C. The resulting supernatant was analyzed via HPLC-MS/MS to determine drug concentrations in each tissue.

Data set [4] can be described thus: Maximal tolerated dose. The conditions noted are these: mouse, in vivo, ip; NOD/SCID mice, intraperitoneal. The procedure: Non-obese diabetic/severe combined immunodeficiency (NOD/SCID) mice were treated intraperitoneally with increasing concentrations of Cbl (10–500 mg/kg) or mt-Cbl (10–50 mg/kg). Animals were monitored daily for weight loss, lethargy and other signs of physical discomfort. […] All animal studies were carried out according to the regulations of the Canadian Council on Animal Care and with the approval of the Ontario Cancer Institute Animal Ethics Review board or the Faculty of Medicine Animal Care Committee at the University of Toronto.

Data set [5] has as its system HeLa cells. The conditions noted are these: 18 hours treatment.
The nature of data set [6]: Pharmacokinetic study, plasma levels by HPLC-MS/MS. The format is in vivo. As to conditions: mouse, ip, CD1 mice, single dose 10 mg/kg intraperitoneal; for AUC: unit inferred. The procedure:
Animal handling and dose administration was performed by Kard Scientific (Beverly, MA). Six CD1 mice were treated with a single dose of 10 mg/kg mt-Cbl or Cbl via intraperitoneal injection. Blood samples were collected at 15 min, 30 min, 1 h, 2 h, 4 h and 8 h in heparin-treated tubes. Samples were kept on ice until centrifugation at 1,500 rpm for 20 min, 4°C and the resulting plasma supernatants were transferred to fresh tubes. Plasma proteins were precipitated with four volumes of ice-cold acetonitrile and spun at 10,000×g for 10 min, 4°C. The resulting supernatant was analyzed via HPLC-MS/MS to determine plasma concentrations of Cbl and mt-Cbl.

The nature of data set [7]: Stability in mouse plasma over three weeks (HPLC). As to conditions: three-week incubation, HPLC single peak.
The nature of data set [8]: Rate of hydrolysis in saline or plasma (HPLC-MS/MS). The data set is classed as in vitro ADME, mouse. The conditions noted are these: 37°C. Here is the method: Stability of mt-Cbl and MPP in mouse plasma: Thiazole orange-labelled conjugates were incubated in mouse plasma for three weeks at room temperature. The stability of these compounds was then assessed via reverse-phase HPLC. A single peak with the identical retention time to a fresh conjugate control was considered to be a positive result for stability in mouse plasma. Rate of mt-Cbl and Cbl hydrolysis in saline or plasma: Cbl and mt-Cbl were incubated in saline or plasma for 0 h, 0.5 h, 1 h, 1.5 h, 2 h, 2.5 h and 3 h at 37°C. Following this, plasma proteins were precipitated in four volumes of ice-cold acetonitrile and centrifuged at 10,000×g for 10 min, 4°C. The resulting supernatant was analyzed via HPLC-MS/MS to determine active drug concentrations in each sample.

Data set [9] concerns 143B cells and 143B ρ° cells. In words: CCK-8 cell viability in 143B parental and ρ° cells. The data set is classed as cell-based. The conditions noted are these: overnight incubation, various doses.
Data set [10] is described as follows: Alkylation activity with 4-(4-nitrobenzyl)pyridine. As to conditions: absorbance of 4-(4-nitrobenzyl)pyridine. The text has this: Supplementary file pone.0060253.s005.pdf: Figure S5 Characterization of Cbl-TPP. (a) Chemical structure of Cbl-TPP . Cbl was conjugated to a triphenylphosphonium ion to generate Cbl-TPP. (b) Alkylation activity of Cbl, mt-Cbl and Cbl-TPP.

The subject of data set [11] is mtDNA of HL-60 cells. In words: Cbl-conjugate labeling of mtDNA (dot blot with TPP antibody). The format is cell-based. The conditions noted are these: 10 uM, 30 min. Here is the method:
HL-60 cells (25 million cells) were incubated with Cbl-TPP (10 uM) for 30 min, after which the cells were collected. The cells were then washed with ice-cold PBS, and their mitochondria were isolated using Mitochondrial Isolation Kit for Mammalian Cells (Thermo Scientific). The mtDNA was extracted from the mitochondrial pellets using AllPrep DNA/RNA Mini Kit (QIAGEN). DNA concentration was measured using a NanoDrop 1000 Spectrophotometer (Thermo Scientific) and then normalized (10 ng/μl). After this, a nitrocellulose membrane was spotted with untreated and treated DNA and UV crosslinked using UV Stratalinker 1800 (Stratagene) The membrane was blocked with 5% BSA-TBST for 1 hr at room temperature and then probed with TPP antibody (1∶5000) at 4°C overnight. Then the membrane was washed and visualized with chemiluminescence detection (GE Amersham).

The test system of data set [12] is mitochondrial proteins of HL-60 cells. Nature of the data set: Cbl-conjugate labeling of mitochondrial proteins (immunoblot). The format is cell-based. As to conditions: HL60 cells, 30 min; biotin-labeled mt-Cbl 1.5 μM or Cbl-TPP 10 uM. The procedure: HL-60 cells (25 million cells) were incubated with biotin-labeled mt-Cbl peptide (Biotin-mt-Cbl) (0, 1.5 μM) or Cbl-TPP (10 uM) for 30 min, after which the cells were collected. The cells were then washed with ice-cold PBS, and their mitochondria were isolated using Mitochondrial Isolation Kit for Mammalian Cells (Thermo Scientific). The mitochondrial pellets were then lysed using RIPA buffer plus protease inhibitors for 30 min. at 4°C and the total protein concentration determined using BCA assay. Lysates (10 μg of total protein) were then loaded onto 7% gels and run at 30 V for 30 min. and 150 V for 1 hour using a tris-tricine buffer system (Cathode buffer: 0.1 M Tris, 0.1 M Tricine, and 0.1% SDS, Anode buffer: 0.2 M Tris-Cl, pH8.9). Immunoblotting was continued as described previously using biotin antibody to detect the biotin tag on mt-Cbl or TPP antibody to detect Cbl-TPP.
On the technique in general: Immunoblotting shows a protein as a band on a membrane.

In data set [13] the test system is HeLa cells. Nature of the data set: Mitochondrial ToxGlo assay, protease activity and cellular ATP levels. The format is cell-based. The conditions noted are these: 90 minutes, various doses (over EC50). Here is the method: (§1) HeLa cells were seeded at 7500 cells/well a day prior to experiments in white flat clear-bottom 96-well plates (Greiner Bio one). Cells were incubated with Cbl, Cbl conjugates, staurosporin or digitonin as appropriate at indicated concentrations. Cellular ATP levels and protease activity were measured after a 90 minute incubation using the Mitochondrial ToxGlo assay (Promega) as per manufacturer's instructions. To assess caspase 3/7 activity, cells were incubated with compound for 6 hours prior to measurement with the Caspase-Glo® 3/7 Assay (Promega) as per manufacturer's instructions.

The test system of data set [14] is leukemia. The arrangement: method as in PMID 8241831. As to conditions: cited from earlier work.
The conditions of data set [15]: in water; cited from earlier work.
For data set [16], the system named is caspase 3/7 activity in HeLa cells. Nature of the data set: Caspase-Glo 3/7 activity assay. The format is cell-based. The conditions noted are these: 6 hours. Here is the method: as §1

Entries after “also recorded” stand apart in the source; their conditions may differ. Read-outs that look alike come from different tables or passages of the source. Square brackets hold non-standard residues; d marks the D form. Peptide text beside a SMILES is read from it. * marks the point of attachment. ξ: configuration not given here. Chlorambucil = O=C(CCCc1ccc(N(CCCl)CCCl)cc1)*; ξCha = NC(CC1CCCCC1)C(=O)O

As to `CC(C)[C@H](NC(=O)c1ccc2ccccc2n1)C(=O)N[C@@H](CC(=O)O)C(=O)COc1c(F)cccc1F` [Q-VD-Oph], in [1], the “Cleavage of caspase-3 and PARP-1” value is on record as “suppressed the effects of Cbl treatment”.
On to `N=C(N)NCCC[C@@H](NC(=O)C(CC1CCCCC1)NC(=O)[C@@H](CCCNC(=N)N)NC(=O)C(CC1CCCCC1)NC(=O)[C@@H](CCCNC(=N)N)NC(=O)C(CC1CCCCC1)NC(=O)CCCc1ccc(N(CCCl)CCCl)cc1)C(N)=O` (stereo partly drawn) [mt-Cbl] (Chlorambucil-[ξCha][dR][ξCha][dR][ξCha][dR]-NH2), for which, in data set [2], the “Liver histology (H&E)” value was “histologically normal with no features of injury or toxicity”; the “Plasma levels of bilirubin, alkaline phosphatase and aspartate aminotransferase” value was “No significant change”. For the same molecule, in data set [3], the Accumulation in liver entry was “site of greatest accumulation”, the “Accumulation in tumors compared to Cbl” value is listed as around 250 fold and the Levels in kidneys entry is “very low levels”. Moreover, in data set [4], the MTD amounted to 50 mg/kg. For the same molecule, in data set [5] (HeLa after siEXOG transfection), the LD50 was 4.7 µM. In [5] (HeLa after siNT (untargeted siRNA control) transfection), this molecule showed an LD50 of 3.5 µM. Moreover, in data set [6] (in vivo), the Cmax came to 800 ng/mL, the half-life was 6 h and the AUC was 3560 ng·h/mL. Also, the “Stability in mouse plasma” value in data set [7] is listed as “stable in mouse plasma”. Besides, the “Half-life (hydrolysis)” value in data set [8] (mouse plasma) was 1 h. This molecule showed a half-life in data set [8] (mouse, plasma, saline) of 1 h.
With `O=C(CCCc1ccc(N(CCCl)CCCl)cc1)NCCC[P+](c1ccccc1)(c1ccccc1)c1ccccc1` [Cbl-TPP], in [9], the “Toxicity in 143B parental versus mtDNA-free ρ° derivative” value is recorded as “overlapping toxicity profiles”. Besides, in data set [10], the “Alkylation activity (rate of alkylation)” value was “retained alkylation activity very similar to that observed with the MPP conjugated form of mt-Cbl; also recorded: reduces its alkylation activity”. The “Alkylation of mtDNA” value in [11] is “Alkylation of both mtDNA and proteins”. In addition, the “Alkylation of mitochondrial proteins” value in data set [12] was “Alkylation of both mtDNA and proteins”. Moreover, in data set [13], the “Cellular ATP level” value was “drastic drop in ATP cellular levels” and the Protease activity result is given as “significant increase in protease activity”.
With `O=C(O)CCCc1ccc(N(CCCl)CCCl)cc1` [Cbl, chlorambucil, reference compound], in data set [2], the “Liver histology (H&E)” value is recorded as “histologically normal with no features of injury or toxicity”; the “Plasma levels of bilirubin, alkaline phosphatase and aspartate aminotransferase” value is given as “No significant change”. In data set [3], the Accumulation in liver result was “site of greatest accumulation” and the Levels in kidneys entry is “very low levels”. This molecule also displayed a maximum tolerated dose (MTD) in data set [4] of 400 mg/kg. In data set [6], the Cmax worked out at 200 ng/mL, the half-life came to 0.75 h and the AUC is 147 ng·h/mL. Also, the “Initial response rate in patients” value in [14] is recorded as 40–60%. Besides, the half-life in [15] was 0.5 h. This molecule also showed a half-life in data set [8] (mouse plasma) of 1 h. Moreover, the half-life in data set [8] (mouse, saline) was 1 h. Besides, the Caspase-3/7 activity result in data set [16] is “increase in caspase-3/7 activity in a dose-dependent manner”. The “Cleavage of caspase-3 and PARP-1” value in data set [1] (HeLa, Cbl 750 μM, 8 hours, Q-VD-Oph 20 μM pretreatment) is “induced the cleavage and activation of caspase-3”.
For `CC(=O)NC(CC1CCCCC1)C(=O)N[C@H](CCCNC(=N)N)C(=O)NC(CC1CCCCC1)C(=O)N[C@H](CCCNC(=N)N)C(=O)NC(CC1CCCCC1)C(=O)N[C@H](CCCNC(=N)N)C(N)=O` (stereo partly drawn) [MPP] (Ac-[ξCha][dR][ξCha][dR][ξCha][dR]-NH2; N-terminus and C-terminus assumed), the “Stability in mouse plasma” value is “stable”.

Broadly, the MTD is the largest dose that counted as tolerated. For orientation: Cmax means the peak of the concentration-time curve. What is called half-life is the time in which the quantity being followed falls by half. The term AUC denotes concentration integrated over time. Higher therefore signals more exposure.
